The source of these data is paper PMC4505066, “Insights into the Recruitment of Class IIa Histone Deacetylases (HDACs) to the SMRT/NCoR Transcriptional Repression Complex” (The Journal of Biological Chemistry, 2015).

Experiment [1] concerns the target T1, HDAC7 catalytic domain (Homo sapiens, UniProt Q8WUI4).
T1 construct: we purified the recombinant catalytic domains of HDACs 4, 5, 7, and 9; hexa-histidine tag (N, cleaved yes); S-tag (N, cleaved yes); made in house; host or cells: Escherichia coli Rosetta (as for HDAC4)
T1 sequence (Q8WUI4 512-865 limits assumed): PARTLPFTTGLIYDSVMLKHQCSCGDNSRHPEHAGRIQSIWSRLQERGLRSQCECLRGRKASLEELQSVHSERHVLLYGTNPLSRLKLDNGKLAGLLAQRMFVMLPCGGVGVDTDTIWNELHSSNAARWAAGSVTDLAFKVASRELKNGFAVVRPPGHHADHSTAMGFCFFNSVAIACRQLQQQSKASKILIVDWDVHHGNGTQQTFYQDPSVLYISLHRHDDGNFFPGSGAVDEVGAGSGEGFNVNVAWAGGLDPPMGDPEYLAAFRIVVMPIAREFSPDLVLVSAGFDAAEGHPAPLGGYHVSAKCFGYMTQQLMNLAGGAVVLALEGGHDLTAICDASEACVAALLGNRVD
As to the kind of experiment: Fluorescence anisotropy binding of labeled GSI peptide to HDAC7. As to conditions: Fig. 2B, labeled wild type peptide 1 μM. The procedure: (§1) Wild type peptide was obtained from Biomatik. Mutant peptides were synthesized in house using a CEM microwave peptide synthesizer. Peptides for use in fluorescence anisotropy assays were synthesized with an extra N-terminal cysteine.
(§2) Peptides were coupled to BODIPY-TMR by incubation in 18 MΩ water at a 5:1 molar ratio for 2 h at room temperature with continual stirring. Following incubation, buffer was exchanged into 1× PBS, 0.5 mM Tris(2-carboxyethyl)phosphine using a PD-10 column (GE Healthcare). Labeled peptides were concentrated using an Amicon centrifugal concentrator. Immediately prior to the fluorescence anisotropy assays the HDACs were concentrated and buffer exchanged into 1× PBS, 0.5 mM Tris(2-carboxyethyl)-phosphine and the protein concentration was determined by A280 in 6 M guanidine HCl. Protein was dispensed into 96-well black plates prior to a 2-fold serial dilution in reaction buffer (1× PBS, 0.01% Triton X-100, 0.1 mg/ml of BSA). Inhibitors were preincubated with HDACs for 30 min at a 2:1 ratio before serial dilution. Labeled peptide was added to a final concentration of 1 μM in a 50-μl reaction volume. Measurements were recorded using an excitation wavelength of 531 nm and emission wavelength of 595 nm. Data were analyzed using GraphPad Prism, assuming non-linear fit with one-site binding to fulfill the equation y = Bmax × x/(Kd + x).
Background: Fluorescence polarisation rises when a labelled molecule tumbles more slowly, as on binding a larger partner.

The target in experiment [2] is T2, full-length HDAC8 (Homo sapiens, UniProt Q9BY41).
T2 construct: along with full-length HDAC8 as an intrinsically active class I HDAC control; made in house
T2 sequence (Q9BY41 1-377): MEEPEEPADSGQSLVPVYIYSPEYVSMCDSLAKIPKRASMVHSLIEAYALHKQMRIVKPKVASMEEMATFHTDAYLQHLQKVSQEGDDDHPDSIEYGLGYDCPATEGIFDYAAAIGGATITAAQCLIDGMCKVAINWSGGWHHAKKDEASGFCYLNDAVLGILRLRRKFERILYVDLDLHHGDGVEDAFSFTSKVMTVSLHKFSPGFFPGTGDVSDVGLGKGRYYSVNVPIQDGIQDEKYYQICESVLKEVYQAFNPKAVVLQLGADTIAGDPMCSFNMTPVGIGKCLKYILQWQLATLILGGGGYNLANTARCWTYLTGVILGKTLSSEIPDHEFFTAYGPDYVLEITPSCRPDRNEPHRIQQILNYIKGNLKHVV
Briefly: Fluorescence anisotropy binding of labeled GSI peptide to HDAC8. Conditions: Fig. 2B, class I HDAC8 control, labeled wild type peptide 1 μM. As to the method: as §1, §2

Experiment [3] has as its target T3, HDAC9 catalytic domain (Homo sapiens, UniProt Q9UKV0).
T3 construct: we purified the recombinant catalytic domains of HDACs 4, 5, 7, and 9; hexa-histidine tag (N, cleaved yes); S-tag (N, cleaved yes); made in house; host or cells: Escherichia coli Rosetta (as for HDAC4)
Briefly: Fluorescence anisotropy binding of labeled GSI peptide to HDAC9. As to conditions: Fig. 2B, labeled wild type peptide 1 μM. The procedure: as §1, §2

Experiment [4] deals with T4, HDAC4cd C667A (Homo sapiens, UniProt P56524, C667A).
T4 construct: we purified the recombinant catalytic domains of HDACs 4, 5, 7, and 9; hexa-histidine tag (N, cleaved yes); S-tag (N, cleaved yes); made in house; host or cells: Escherichia coli Rosetta (pET30)
T4 sequence (P56524 655-1084 C667A limits assumed): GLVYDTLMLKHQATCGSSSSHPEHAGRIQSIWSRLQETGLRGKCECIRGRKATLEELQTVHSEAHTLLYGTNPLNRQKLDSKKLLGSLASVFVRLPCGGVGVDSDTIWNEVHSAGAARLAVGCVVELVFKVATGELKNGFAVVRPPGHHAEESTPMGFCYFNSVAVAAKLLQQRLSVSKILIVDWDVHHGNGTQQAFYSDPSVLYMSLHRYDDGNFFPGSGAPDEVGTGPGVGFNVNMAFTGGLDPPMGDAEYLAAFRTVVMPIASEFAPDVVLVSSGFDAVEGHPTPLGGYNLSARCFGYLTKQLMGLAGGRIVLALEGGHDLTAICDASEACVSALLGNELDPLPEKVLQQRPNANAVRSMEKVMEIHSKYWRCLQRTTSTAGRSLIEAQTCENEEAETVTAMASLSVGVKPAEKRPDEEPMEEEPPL
Briefly: Fluorescence anisotropy binding of GSI peptide to HDAC4 C667A mutant. Conditions: Fig. 3C, zinc chelating residue mutant. As to the method: as §2

Experiment [5] deals with T5, HDAC4cd C751A (Homo sapiens, UniProt P56524, C751A).
T5 construct: we purified the recombinant catalytic domains of HDACs 4, 5, 7, and 9; hexa-histidine tag (N, cleaved yes); S-tag (N, cleaved yes); made in house; host or cells: Escherichia coli Rosetta (pET30)
T5 sequence (P56524 655-1084 C751A limits assumed): as the sequence (P56524 655-1084 C667A limits assumed) above, with A13C, C97A counted along it
Briefly: Fluorescence anisotropy binding of GSI peptide to HDAC4 C751A mutant. Conditions: Fig. 3C, zinc chelating residue mutant. The procedure:
as §2

Experiment [6] has as its target T6, HDAC4cd H675A (Homo sapiens, UniProt P56524, H675A).
T6 construct: we purified the recombinant catalytic domains of HDACs 4, 5, 7, and 9; hexa-histidine tag (N, cleaved yes); S-tag (N, cleaved yes); made in house; host or cells: Escherichia coli Rosetta (pET30)
As to the kind of experiment: Fluorescence anisotropy binding of GSI peptide to HDAC4 H675A mutant. Conditions: Fig. 3C, zinc chelating residue mutant. As to the method:
as §2

The target in experiment [7] is T7, HDAC5 catalytic domain (Homo sapiens, UniProt Q9UQL6).
T7 construct: we purified the recombinant catalytic domains of HDACs 4, 5, 7, and 9; hexa-histidine tag (N, cleaved yes); S-tag (N, cleaved yes); made in house; host or cells: Escherichia coli Rosetta (as for HDAC4)
T7 sequence (Q9UQL6 684-1028 limits assumed, species assumed): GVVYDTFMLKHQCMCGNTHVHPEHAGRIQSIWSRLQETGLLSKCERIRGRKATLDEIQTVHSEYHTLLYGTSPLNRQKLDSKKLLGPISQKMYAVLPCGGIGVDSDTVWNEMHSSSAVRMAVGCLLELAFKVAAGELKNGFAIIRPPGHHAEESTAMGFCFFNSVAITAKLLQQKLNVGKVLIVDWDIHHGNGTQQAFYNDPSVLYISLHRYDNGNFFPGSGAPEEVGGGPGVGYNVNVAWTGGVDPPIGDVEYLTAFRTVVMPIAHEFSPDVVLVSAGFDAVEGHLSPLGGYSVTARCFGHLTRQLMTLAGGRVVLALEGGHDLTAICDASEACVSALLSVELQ
As to the kind of experiment: Fluorescence anisotropy binding of labeled GSI peptide to HDAC5. Conditions: Fig. 2B, labeled wild type peptide 1 μM. The procedure: as §1, §2

Experiment [8] has as its target T8, H976Y gain-of-function (GOF) HDAC4 catalytic domain (Homo sapiens, UniProt P56524, H976Y).
T8 construct: the H976Y gain-of-function (GOF) HDAC4 catalytic domain; hexa-histidine tag (N, cleaved yes); S-tag (N, cleaved yes); made in house; host or cells: Escherichia coli Rosetta (pET30)
T8 sequence (P56524 655-1084 H976Y limits assumed): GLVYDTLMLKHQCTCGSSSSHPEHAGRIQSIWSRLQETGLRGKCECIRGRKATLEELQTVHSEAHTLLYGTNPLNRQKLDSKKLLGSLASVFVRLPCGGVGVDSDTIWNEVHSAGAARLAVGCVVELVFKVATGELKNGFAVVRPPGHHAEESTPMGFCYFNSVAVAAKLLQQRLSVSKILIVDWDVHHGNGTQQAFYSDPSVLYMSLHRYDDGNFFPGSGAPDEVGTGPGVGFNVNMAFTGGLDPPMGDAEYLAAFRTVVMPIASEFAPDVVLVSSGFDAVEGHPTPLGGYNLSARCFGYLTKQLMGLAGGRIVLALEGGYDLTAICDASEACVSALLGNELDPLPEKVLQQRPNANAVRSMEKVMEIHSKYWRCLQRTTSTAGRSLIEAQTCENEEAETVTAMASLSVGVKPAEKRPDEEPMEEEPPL
Briefly: Fluorescence anisotropy binding of GSI peptide to H976Y gain-of-function HDAC4.
Procedure: Peptides were coupled to BODIPY-TMR by incubation in 18 MΩ water at a 5:1 molar ratio for 2 h at room temperature with continual stirring. Following incubation, buffer was exchanged into 1× PBS, 0.5 mM Tris(2-carboxyethyl)phosphine using a PD-10 column (GE Healthcare). Labeled peptides were concentrated using an Amicon centrifugal concentrator. Immediately prior to the fluorescence anisotropy assays the HDACs were concentrated and buffer exchanged into 1× PBS, 0.5 mM Tris(2-carboxyethyl)-phosphine and the protein concentration was determined by A280 in 6 M guanidine HCl. Protein was dispensed into 96-well black plates prior to a 2-fold serial dilution in reaction buffer (1× PBS, 0.01% Triton X-100, 0.1 mg/ml of BSA). Inhibitors were preincubated with HDACs for 30 min at a 2:1 ratio before serial dilution. Labeled peptide was added to a final concentration of 1 μM in a 50-μl reaction volume. […] Data were analyzed using GraphPad Prism, assuming non-linear fit with one-site binding to fulfill the equation y = Bmax × x/(Kd + x).

For experiment [9], the target named is T9, HDAC4 catalytic domain (wild type) (Homo sapiens, UniProt P56524).
T9 construct: we purified the recombinant catalytic domains of HDACs 4, 5, 7, and 9; hexa-histidine tag (N, cleaved yes); S-tag (N, cleaved yes); made in house; host or cells: Escherichia coli Rosetta (pET30)
T9 sequence (P56524 655-1084 limits assumed): as the sequence (P56524 655-1084 C667A limits assumed) above, with A13C counted along it
As to the kind of experiment: Fluorescence anisotropy binding of BODIPY-TMR labeled GSI motif peptides to HDAC4.
Procedure: Immediately prior to the fluorescence anisotropy assays the HDACs were concentrated and buffer exchanged into 1× PBS, 0.5 mM Tris(2-carboxyethyl)-phosphine and the protein concentration was determined by A280 in 6 M guanidine HCl. Protein was dispensed into 96-well black plates prior to a 2-fold serial dilution in reaction buffer (1× PBS, 0.01% Triton X-100, 0.1 mg/ml of BSA). Inhibitors were preincubated with HDACs for 30 min at a 2:1 ratio before serial dilution. Labeled peptide was added to a final concentration of 1 μM in a 50-μl reaction volume. […] Data were analyzed using GraphPad Prism, assuming non-linear fit with one-site binding to fulfill the equation y = Bmax × x/(Kd + x).

The mark [10] stands for this setting: Fig. 2A, fluorescence anisotropy, BODIPY-TMR labeled peptide 1 μM, HDAC4 2-fold serial dilution, one-site binding fit, read-out: Kd.

Read-outs that look alike come from different tables or passages of the source. No end group written: not given here.

T3 sequence (Q9UKV0 631-978 limits assumed, species assumed): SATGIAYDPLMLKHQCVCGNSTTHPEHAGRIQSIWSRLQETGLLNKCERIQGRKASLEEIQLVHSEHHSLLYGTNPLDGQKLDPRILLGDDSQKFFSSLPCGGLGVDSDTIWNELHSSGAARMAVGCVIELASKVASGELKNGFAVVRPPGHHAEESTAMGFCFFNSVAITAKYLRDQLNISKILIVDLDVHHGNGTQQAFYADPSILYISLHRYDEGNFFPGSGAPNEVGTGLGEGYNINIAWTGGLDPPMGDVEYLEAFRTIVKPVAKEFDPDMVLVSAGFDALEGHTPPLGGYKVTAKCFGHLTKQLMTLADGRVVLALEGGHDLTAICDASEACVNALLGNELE
T6 sequence (P56524 655-1084 H675A limits assumed): as the sequence (P56524 655-1084 C667A limits assumed) above, with A13C, H21A counted along it

With `CC[C@H](C)[C@H](NC(=O)[C@H](CO)NC(=O)CNC(=O)[C@H](CCC(=O)O)NC(=O)[C@H](CCCCN)NC(=O)[C@H](CC(C)C)NC(=O)[C@@H]1CCCN1C(=O)[C@H](CCCNC(=N)N)NC(=O)[C@@H]1CCCN1C(=O)[C@@H](N)CS)C(=O)N[C@H](C(=O)N[C@@H](CCC(N)=O)C(=O)NCC(=O)N[C@H](C(=O)N1CCC[C@H]1C(=O)N[C@@H](CC(C)C)C(=O)N[C@@H](CCCCN)C(=O)N[C@@H](Cc1ccc(O)cc1)C(=O)N[C@@H](CC(=O)O)C(=O)N[C@H](C(=O)NCC(=O)O)[C@@H](C)O)[C@@H](C)O)[C@@H](C)O` [WT], the Kd (usually the free concentration of one partner at which half of the binding sites on the other are occupied at equilibrium, for simple one-to-one binding) in [1] is 4.44 ± 0.44 µM; in [2] it was “no interaction”; in experiment [2] (read-out: Kd), more than 1000 µM; in experiment [3], 8.34 ± 1.07 µM; in experiment [4] it was more than 1000 µM; in experiment [5] it was more than 1000 µM. Further, the Kd was more than 1000 µM in experiment [6]; 4.24 ± 0.59 µM in [7]; 2.94 ± 0.15 µM in [8] (Fig. 4A, H976Y GOF HDAC4 catalytic domain, DMSO, read-out: GOF Kd); 1.76 ± 0.18 µM in experiment [8] (Fig. 4A, H976Y GOF HDAC4 catalytic domain, No Inhibitor, read-out: GOF Kd); 3.22 ± 0.2 µM in experiment [9] (Fig. 4A, wild type HDAC4 catalytic domain, DMSO, read-out: WT Kd); 4.73 ± 0.31 µM in experiment [9] (Fig. 4A, wild type HDAC4 catalytic domain, No Inhibitor, read-out: WT Kd).

Turning to `O=C(CCCCCCC(=O)Nc1ccccc1)NO` [SAHA, suberoylanilide hydroxamic acid, reference compound], the “maximum polarization of GSI peptide binding in the presence of inhibitor” value in experiment [9] (wild type HDAC4, 2-fold molar excess of inhibitor) is “lower maximum polarization”.

As for `CCCC(CCC)C(=O)O` [Valproic Acid, valproic acid, reference compound], the Kd came out at 2.62 ± 0.18 µM in [8] (read-out: GOF Kd of the GSI peptide in the presence of the HDAC inhibitor) and 3.38 ± 0.24 µM in experiment [9] (read-out: WT Kd of the GSI peptide in the presence of the HDAC inhibitor).

As for CPRPLKEGSITQGTALKYDTG [P8A], the Kd in experiment [9] (setting [10]) turned out to be 47 ± 12.3 µM.

As for CPRPLKEGSITAGTPLKYDTG [Q5A], the Kd in [9] (setting [10]) stood at 5.47 ± 0.57 µM.

For `CCCC(=O)[O-].[Na+]` [Sodium Butyrate, sodium butyrate, reference compound], the Kd in experiment [8] (Fig. 4A, H976Y GOF HDAC4 catalytic domain preincubated 30 min with 2-fold molar excess of the named inhibitor, Kd is that of the labeled GSI peptide, read-out: GOF Kd of the GSI peptide in the presence of the HDAC inhibitor) was found to be 2.53 ± 0.24 µM; in experiment [9] (Fig. 4A, wild type HDAC4 catalytic domain preincubated 30 min with 2-fold molar excess of the named inhibitor, Kd is that of the labeled GSI peptide, read-out: WT Kd of the GSI peptide in the presence of the HDAC inhibitor), 4.61 ± 0.26 µM.

In the case of CPRPLKEGSITEGTPLKYDTG [Q5E], the Kd in experiment [9] (setting [10]) was found to be 17.7 ± 1.4 µM.

Regarding CPRPLKEGSIVQGTPLKYDTG [T4V], in experiment [9] (setting [10]), the Kd was found to be 16.9 ± 8.73 µM.

As for CPRPLKEGSIAQGTPLKYDTG [T4A], the dissociation constant (Kd) in experiment [9] (setting [10]) came out at 14.4 ± 4.26 µM.
